{"source": "the supplement of paper PMC8967900", "data": [{"system": "MOLT-14", "test": "selective drug sensitivity score (sDSS, relative to normal bone marrow) (sDSS (score)); higher = more potent and effective on the cell line relative to normal bone marrow cells", "settings": "72 h", "values": [{"smiles": "Cn1cc(C[C@@H](N)C(=O)O)c2ccccc21", "note": "[1-methyl-D-tryptophan] (top concentration 5000 nM)", "selective drug sensitivity score": -0.62}, {"smiles": "CN(C)C[C@@H]1CCn2cc(c3ccccc32)C2=C(C(=O)NC2=O)c2cn(c3ccccc23)CCO1", "note": "[Ruboxistaurin] (top concentration 10000 nM)", "selective drug sensitivity score": 1.66}, {"smiles": "CCNC(=O)CCC/C=C\\C[C@@H]1[C@@H](/C=C/[C@@H](O)CCc2ccccc2)[C@H](O)C[C@@H]1O", "note": "[Bimatoprost] (top concentration 5500 nM)", "selective drug sensitivity score": 0}, {"smiles": "O=c1[nH]cc(F)c(=O)[nH]1", "note": "[Fluorouracil] (top concentration 10000 nM)", "selective drug sensitivity score": 5.76}, {"smiles": "CC1(C)NC(=O)N(c2ccc([N+](=O)[O-])c(C(F)(F)F)c2)C1=O", "note": "[Nilutamide] (top concentration 10000 nM)", "selective drug sensitivity score": -0.48}, {"smiles": "CNC(=O)c1ccc2cc([C@@]3(O)CCn4cncc43)ccc2c1", "note": "[Orteronel] (top concentration 10000 nM)", "selective drug sensitivity score": 0}, {"smiles": "CCC(C)(C)C(=O)O[C@H]1C[C@@H](C)C=C2C=C[C@H](C)[C@H](CC[C@@H]3C[C@@H](O)CC(=O)O3)[C@H]21", "note": "[Simvastatin] (top concentration 10000 nM)", "selective drug sensitivity score": -0.22}, {"smiles": "C[C@]12CC[C@H](O)CC1=CC[C@@H]1[C@@H]2CC[C@]2(C)C(c3cccnc3)=CC[C@@H]12", "note": "[Abiraterone] (top concentration 5000 nM)", "selective drug sensitivity score": -0.12}]}, {"system": "COG-LL-355h", "test": "selective drug sensitivity score (sDSS, relative to normal bone marrow) (sDSS (score)); higher = more potent and effective on the cell line relative to normal bone marrow cells", "settings": "72 h", "values": [{"smiles": "Cn1cc(C[C@@H](N)C(=O)O)c2ccccc21", "note": "[1-methyl-D-tryptophan] (top concentration 5000 nM)", "selective drug sensitivity score": -0.62}, {"smiles": "CN(C)C[C@@H]1CCn2cc(c3ccccc32)C2=C(C(=O)NC2=O)c2cn(c3ccccc23)CCO1", "note": "[Ruboxistaurin] (top concentration 10000 nM)", "selective drug sensitivity score": 1.26}, {"smiles": "CCNC(=O)CCC/C=C\\C[C@@H]1[C@@H](/C=C/[C@@H](O)CCc2ccccc2)[C@H](O)C[C@@H]1O", "note": "[Bimatoprost] (top concentration 5500 nM)", "selective drug sensitivity score": 0}, {"smiles": "O=c1[nH]cc(F)c(=O)[nH]1", "note": "[Fluorouracil] (top concentration 10000 nM)", "selective drug sensitivity score": 1.76}, {"smiles": "CC1(C)NC(=O)N(c2ccc([N+](=O)[O-])c(C(F)(F)F)c2)C1=O", "note": "[Nilutamide] (top concentration 10000 nM)", "selective drug sensitivity score": -0.48}, {"smiles": "CNC(=O)c1ccc2cc([C@@]3(O)CCn4cncc43)ccc2c1", "note": "[Orteronel] (top concentration 10000 nM)", "selective drug sensitivity score": 0}, {"smiles": "CCC(C)(C)C(=O)O[C@H]1C[C@@H](C)C=C2C=C[C@H](C)[C@H](CC[C@@H]3C[C@@H](O)CC(=O)O3)[C@H]21", "note": "[Simvastatin] (top concentration 10000 nM)", "selective drug sensitivity score": 3.48}, {"smiles": "C[C@]12CC[C@H](O)CC1=CC[C@@H]1[C@@H]2CC[C@]2(C)C(c3cccnc3)=CC[C@@H]12", "note": "[Abiraterone] (top concentration 5000 nM)", "selective drug sensitivity score": -0.12}]}, {"system": "MHH-CALL-4", "test": "selective drug sensitivity score (sDSS, relative to normal bone marrow) (sDSS (score)); higher = more potent and effective on the cell line relative to normal bone marrow cells", "settings": "72 h", "values": [{"smiles": "Cn1cc(C[C@@H](N)C(=O)O)c2ccccc21", "note": "[1-methyl-D-tryptophan] (top concentration 5000 nM)", "selective drug sensitivity score": -0.62}, {"smiles": "CN(C)C[C@@H]1CCn2cc(c3ccccc32)C2=C(C(=O)NC2=O)c2cn(c3ccccc23)CCO1", "note": "[Ruboxistaurin] (top concentration 10000 nM)", "selective drug sensitivity score": 1.46}, {"smiles": "CCNC(=O)CCC/C=C\\C[C@@H]1[C@@H](/C=C/[C@@H](O)CCc2ccccc2)[C@H](O)C[C@@H]1O", "note": "[Bimatoprost] (top concentration 5500 nM)", "selective drug sensitivity score": 0.5}, {"smiles": "O=c1[nH]cc(F)c(=O)[nH]1", "note": "[Fluorouracil] (top concentration 10000 nM)", "selective drug sensitivity score": -0.14}, {"smiles": "CC1(C)NC(=O)N(c2ccc([N+](=O)[O-])c(C(F)(F)F)c2)C1=O", "note": "[Nilutamide] (top concentration 10000 nM)", "selective drug sensitivity score": 2.02}, {"smiles": "CNC(=O)c1ccc2cc([C@@]3(O)CCn4cncc43)ccc2c1", "note": "[Orteronel] (top concentration 10000 nM)", "selective drug sensitivity score": 0}, {"smiles": "CCC(C)(C)C(=O)O[C@H]1C[C@@H](C)C=C2C=C[C@H](C)[C@H](CC[C@@H]3C[C@@H](O)CC(=O)O3)[C@H]21", "note": "[Simvastatin] (top concentration 10000 nM)", "selective drug sensitivity score": 2.58}, {"smiles": "C[C@]12CC[C@H](O)CC1=CC[C@@H]1[C@@H]2CC[C@]2(C)C(c3cccnc3)=CC[C@@H]12", "note": "[Abiraterone] (top concentration 5000 nM)", "selective drug sensitivity score": 0.28}]}, {"system": "NALM-6", "test": "selective drug sensitivity score (sDSS, relative to normal bone marrow) (sDSS (score)); higher = more potent and effective on the cell line relative to normal bone marrow cells", "settings": "72 h", "values": [{"smiles": "Cn1cc(C[C@@H](N)C(=O)O)c2ccccc21", "note": "[1-methyl-D-tryptophan] (top concentration 5000 nM)", "selective drug sensitivity score": -0.62}, {"smiles": "CN(C)C[C@@H]1CCn2cc(c3ccccc32)C2=C(C(=O)NC2=O)c2cn(c3ccccc23)CCO1", "note": "[Ruboxistaurin] (top concentration 10000 nM)", "selective drug sensitivity score": -2.64}, {"smiles": "CCNC(=O)CCC/C=C\\C[C@@H]1[C@@H](/C=C/[C@@H](O)CCc2ccccc2)[C@H](O)C[C@@H]1O", "note": "[Bimatoprost] (top concentration 5500 nM)", "selective drug sensitivity score": 0}, {"smiles": "O=c1[nH]cc(F)c(=O)[nH]1", "note": "[Fluorouracil] (top concentration 10000 nM)", "selective drug sensitivity score": 1.86}, {"smiles": "CC1(C)NC(=O)N(c2ccc([N+](=O)[O-])c(C(F)(F)F)c2)C1=O", "note": "[Nilutamide] (top concentration 10000 nM)", "selective drug sensitivity score": 1.82}, {"smiles": "CNC(=O)c1ccc2cc([C@@]3(O)CCn4cncc43)ccc2c1", "note": "[Orteronel] (top concentration 10000 nM)", "selective drug sensitivity score": 0}, {"smiles": "CCC(C)(C)C(=O)O[C@H]1C[C@@H](C)C=C2C=C[C@H](C)[C@H](CC[C@@H]3C[C@@H](O)CC(=O)O3)[C@H]21", "note": "[Simvastatin] (top concentration 10000 nM)", "selective drug sensitivity score": 0.08}, {"smiles": "C[C@]12CC[C@H](O)CC1=CC[C@@H]1[C@@H]2CC[C@]2(C)C(c3cccnc3)=CC[C@@H]12", "note": "[Abiraterone] (top concentration 5000 nM)", "selective drug sensitivity score": -0.12}]}, {"system": "NALL-1", "test": "selective drug sensitivity score (sDSS, relative to normal bone marrow) (sDSS (score)); higher = more potent and effective on the cell line relative to normal bone marrow cells", "settings": "72 h", "values": [{"smiles": "Cn1cc(C[C@@H](N)C(=O)O)c2ccccc21", "note": "[1-methyl-D-tryptophan] (top concentration 5000 nM)", "selective drug sensitivity score": -0.62}, {"smiles": "CN(C)C[C@@H]1CCn2cc(c3ccccc32)C2=C(C(=O)NC2=O)c2cn(c3ccccc23)CCO1", "note": "[Ruboxistaurin] (top concentration 10000 nM)", "selective drug sensitivity score": -3.04}, {"smiles": "CCNC(=O)CCC/C=C\\C[C@@H]1[C@@H](/C=C/[C@@H](O)CCc2ccccc2)[C@H](O)C[C@@H]1O", "note": "[Bimatoprost] (top concentration 5500 nM)", "selective drug sensitivity score": 0}, {"smiles": "O=c1[nH]cc(F)c(=O)[nH]1", "note": "[Fluorouracil] (top concentration 10000 nM)", "selective drug sensitivity score": -0.24}, {"smiles": "CC1(C)NC(=O)N(c2ccc([N+](=O)[O-])c(C(F)(F)F)c2)C1=O", "note": "[Nilutamide] (top concentration 10000 nM)", "selective drug sensitivity score": 7.02}, {"smiles": "CNC(=O)c1ccc2cc([C@@]3(O)CCn4cncc43)ccc2c1", "note": "[Orteronel] (top concentration 10000 nM)", "selective drug sensitivity score": 0}, {"smiles": "CCC(C)(C)C(=O)O[C@H]1C[C@@H](C)C=C2C=C[C@H](C)[C@H](CC[C@@H]3C[C@@H](O)CC(=O)O3)[C@H]21", "note": "[Simvastatin] (top concentration 10000 nM)", "selective drug sensitivity score": 3.48}, {"smiles": "C[C@]12CC[C@H](O)CC1=CC[C@@H]1[C@@H]2CC[C@]2(C)C(c3cccnc3)=CC[C@@H]12", "note": "[Abiraterone] (top concentration 5000 nM)", "selective drug sensitivity score": 3.08}]}]}
